PubChem BioAssay AID1053157 (Broad Institute, 2014)
pKd: −log10 of the molar value.

How the values were obtained:
Test in all cases: protein binders in hepatoma cell extract, late-stage follow-up, mechanism study for Trib1 inducer project, cell lysate, SILAC, HepG2 extract, LC-MS/MS (AID 1053157)
[1] = target: Ferroptosis suppressor protein 1 (Homo sapiens) (UniProt Q9BRQ8); conditions: SILAC chemoproteomic competition binding, Apoptosis-inducing factor
[2] = target: NADH dehydrogenase [ubiquinone] 1 alpha subcomplex subunit 6 (Homo sapiens) (UniProt P56556); conditions: SILAC chemoproteomic competition binding
Prenylcysteine oxidase 1 = Prenylcysteine oxidase 1 (UniProt Q9UHG3); conditions: SILAC chemoproteomic competition binding
Protein zwilch homolog = Protein zwilch homolog (UniProt Q9H900); conditions: SILAC chemoproteomic competition binding
Ran-binding protein 6 = Ran-binding protein 6 (UniProt O60518); conditions: SILAC chemoproteomic competition binding
[3] = target: Ubiquitin carboxyl-terminal hydrolase 34 (UniProt Q70CQ2); conditions: SILAC chemoproteomic competition binding

Sequence of Ran-binding protein 6 (O60518 whole entry, looked up): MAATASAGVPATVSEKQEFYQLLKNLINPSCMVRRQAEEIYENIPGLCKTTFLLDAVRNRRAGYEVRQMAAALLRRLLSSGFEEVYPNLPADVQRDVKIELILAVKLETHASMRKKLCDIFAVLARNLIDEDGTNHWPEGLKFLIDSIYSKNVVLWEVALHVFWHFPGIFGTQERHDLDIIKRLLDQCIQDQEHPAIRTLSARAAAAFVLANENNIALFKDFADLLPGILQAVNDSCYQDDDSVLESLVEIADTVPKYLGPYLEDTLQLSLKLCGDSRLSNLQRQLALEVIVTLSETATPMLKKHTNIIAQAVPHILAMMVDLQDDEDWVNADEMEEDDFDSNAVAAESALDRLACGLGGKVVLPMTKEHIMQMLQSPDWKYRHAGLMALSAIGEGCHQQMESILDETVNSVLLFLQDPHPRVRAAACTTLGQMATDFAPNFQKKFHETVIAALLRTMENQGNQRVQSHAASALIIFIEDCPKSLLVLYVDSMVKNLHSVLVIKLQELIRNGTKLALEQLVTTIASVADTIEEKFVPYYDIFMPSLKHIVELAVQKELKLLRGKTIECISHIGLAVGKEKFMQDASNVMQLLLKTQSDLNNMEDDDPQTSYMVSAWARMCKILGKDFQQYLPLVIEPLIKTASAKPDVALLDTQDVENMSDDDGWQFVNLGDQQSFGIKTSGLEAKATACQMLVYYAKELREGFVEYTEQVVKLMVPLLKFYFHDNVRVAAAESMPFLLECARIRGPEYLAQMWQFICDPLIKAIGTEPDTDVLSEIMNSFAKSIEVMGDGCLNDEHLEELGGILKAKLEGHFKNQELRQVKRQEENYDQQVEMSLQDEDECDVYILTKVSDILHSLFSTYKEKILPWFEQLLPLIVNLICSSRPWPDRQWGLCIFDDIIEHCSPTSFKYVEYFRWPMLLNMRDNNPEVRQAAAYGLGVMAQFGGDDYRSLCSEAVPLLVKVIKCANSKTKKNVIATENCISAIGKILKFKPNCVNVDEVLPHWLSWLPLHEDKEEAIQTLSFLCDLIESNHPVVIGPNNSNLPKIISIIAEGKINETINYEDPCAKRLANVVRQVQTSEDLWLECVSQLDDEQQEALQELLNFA
Sequence of NADH dehydrogenase [ubiquinone] 1 alpha subcomplex subunit 6 (Homo sapiens) (P56556 whole entry, looked up, one chain of several): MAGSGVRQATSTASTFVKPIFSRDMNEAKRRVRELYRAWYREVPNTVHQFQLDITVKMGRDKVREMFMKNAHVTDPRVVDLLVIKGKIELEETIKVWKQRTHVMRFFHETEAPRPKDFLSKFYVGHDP
Sequence of Prenylcysteine oxidase 1 (Q9UHG3 whole entry, looked up): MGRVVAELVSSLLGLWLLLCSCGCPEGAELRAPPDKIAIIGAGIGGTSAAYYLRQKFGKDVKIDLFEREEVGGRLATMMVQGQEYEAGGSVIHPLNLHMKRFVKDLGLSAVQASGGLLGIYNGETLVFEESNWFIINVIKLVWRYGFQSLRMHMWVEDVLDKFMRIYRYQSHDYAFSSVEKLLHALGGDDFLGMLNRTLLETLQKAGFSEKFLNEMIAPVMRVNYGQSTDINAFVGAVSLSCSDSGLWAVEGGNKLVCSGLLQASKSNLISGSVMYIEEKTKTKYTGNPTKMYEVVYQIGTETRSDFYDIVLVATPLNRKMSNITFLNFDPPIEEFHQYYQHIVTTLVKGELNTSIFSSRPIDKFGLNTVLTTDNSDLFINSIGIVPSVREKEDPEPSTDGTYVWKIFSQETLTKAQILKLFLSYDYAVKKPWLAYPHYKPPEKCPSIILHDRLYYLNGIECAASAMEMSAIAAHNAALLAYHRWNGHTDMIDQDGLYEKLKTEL
Sequence of Ferroptosis suppressor protein 1 (Homo sapiens) (Q9BRQ8 whole entry, looked up): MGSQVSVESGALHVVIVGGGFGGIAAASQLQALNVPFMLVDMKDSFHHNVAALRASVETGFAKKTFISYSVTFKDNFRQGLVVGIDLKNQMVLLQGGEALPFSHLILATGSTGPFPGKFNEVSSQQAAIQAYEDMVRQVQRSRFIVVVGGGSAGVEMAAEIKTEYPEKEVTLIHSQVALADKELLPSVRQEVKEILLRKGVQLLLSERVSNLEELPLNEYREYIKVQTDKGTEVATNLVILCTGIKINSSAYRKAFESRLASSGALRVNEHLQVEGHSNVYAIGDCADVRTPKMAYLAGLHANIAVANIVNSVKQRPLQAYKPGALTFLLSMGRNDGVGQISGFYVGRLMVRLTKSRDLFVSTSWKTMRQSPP
Sequence of Protein zwilch homolog (Q9H900 whole entry, looked up): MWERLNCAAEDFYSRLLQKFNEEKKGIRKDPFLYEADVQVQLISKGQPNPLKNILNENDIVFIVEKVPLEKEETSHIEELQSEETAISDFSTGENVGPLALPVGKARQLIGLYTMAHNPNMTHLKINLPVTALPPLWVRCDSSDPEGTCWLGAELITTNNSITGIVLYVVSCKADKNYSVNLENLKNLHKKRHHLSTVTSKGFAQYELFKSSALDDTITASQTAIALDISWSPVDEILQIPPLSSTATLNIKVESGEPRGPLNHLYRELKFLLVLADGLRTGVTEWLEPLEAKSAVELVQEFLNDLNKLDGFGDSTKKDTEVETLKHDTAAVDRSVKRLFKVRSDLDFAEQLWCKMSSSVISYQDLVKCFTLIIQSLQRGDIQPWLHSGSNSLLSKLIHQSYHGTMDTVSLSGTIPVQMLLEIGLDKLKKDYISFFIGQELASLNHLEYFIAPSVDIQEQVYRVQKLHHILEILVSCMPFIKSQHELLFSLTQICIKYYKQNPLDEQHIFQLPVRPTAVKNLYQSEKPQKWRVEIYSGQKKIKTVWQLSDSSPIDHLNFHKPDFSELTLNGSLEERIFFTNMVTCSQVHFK

pKd [1]: 4.57 | pKd [2]: 4.53 | pKd (Prenylcysteine oxidase 1): 4.99 | pKd (Protein zwilch homolog): 4.74 | pKd (Ran-binding protein 6): 4.59 | pKd [3]: 4.59
SMILES: CN1C(=O)c2cc(NC(=O)c3ccc(C(F)(F)F)cc3)ccc2OC[C@@H]2O[C@H](CC(=O)NC3Cc4ccccc4C3)CC[C@@H]21
